Experimental findings from ChEMBL document CHEMBL2429820, “Synthesis and anticonvulsant activity evaluation of 7-alkoxy-2,4-dihydro-1H-benzo[b][1,2,4]triazolo[4,3-d][1,4]thiazin-1-ones in various murine experimental seizure models” (Med Chem Res, 2013) are described below.

For data set [1], the system named is Mus musculus. The data set can be described thus: Anticonvulsant activity in KunMing mouse assessed as protection against maximal electroshock-induced seizure at 7.5 mg/kg, ip after 0.5 hrs. Also noted: dose 7.5 mg/kg. It counts as functional, organism-based. Background: The maximal electroshock test induces tonic seizures with an electrical stimulus.
Data set [2] has as its system Mus musculus. Description: Anticonvulsant activity in KunMing mouse assessed as protection against maximal electroshock-induced seizure at 100 mg/kg, ip after 0.5 hrs. The class given is functional, organism-based. Also noted: dose 100 mg/kg.
Data set [3] relates to Mus musculus. The data set can be described thus: Protective index, ratio of TD50 for ip dosed KunMing mouse to ED50 for ip dosed KunMing mouse. The class given is functional.
Data set [4] has as its system Mus musculus. Description: Anticonvulsant activity in KunMing mouse assessed as protection against maximal electroshock-induced seizure at 30 mg/kg, ip after 0.5 hrs. Also noted: dose 30 mg/kg. The class given is functional, organism-based.
Data set [5] has as its system Mus musculus. Description: Anticonvulsant activity in KunMing mouse assessed as protection against maximal electroshock-induced seizure at 15 mg/kg, ip after 0.5 hrs. It counts as functional, organism-based. The arrangement: dose 15 mg/kg.
Data set [6] deals with Mus musculus. The data set can be described thus: Anticonvulsant activity in ip dosed KunMing mouse assessed as protection against maximal electroshock-induced seizure after 0.5 hrs. The class given is functional.
Data set [7] is described as follows: Neurotoxicity in ip dosed KunMing mouse assessed as inability of animal to maintain equilibrium on rod for at least 1 min. The class given is toxicity, organism-based. To be noted: in vivo.
The subject of data set [8] is Mus musculus. The data set can be described thus: Anticonvulsant activity against 3-mercaptopropionic acid-induced seizure in KunMing mouse assessed as tonic seizure level at 30 mg/kg, ip administered 30 mins before 3-mercaptopropionic acid challenge measured after 30 mins. To be noted: route intraperitoneal. The class given is functional.
Data set [9] relates to Mus musculus. The data set can be described thus: Anticonvulsant activity against pentylenetetrazole-induced seizure in KunMing mouse assessed as tonic seizure level at 30 mg/kg, ip administered 30 mins before pentylenetetrazole challenge measured after 30 mins. It counts as functional. The conditions noted are these: route intraperitoneal.
Data set [10] deals with Mus musculus. Description: Anticonvulsant activity against pentylenetetrazole-induced seizure in KunMing mouse assessed as clonic seizure level at 30 mg/kg, ip administered 30 mins before pentylenetetrazole challenge measured after 30 mins. It counts as functional. To be noted: route intraperitoneal.
Data set [11] deals with Mus musculus. The data set can be described thus: Anticonvulsant activity against bicuculline-induced seizure in KunMing mouse assessed as tonic seizure level at 30 mg/kg, ip administered 30 mins before bicuculline challenge measured after 30 mins. It counts as functional. The conditions noted are these: route intraperitoneal.
The test system of data set [12] is Mus musculus. Description: Anticonvulsant activity against bicuculline-induced seizure in KunMing mouse assessed as lethality at 30 mg/kg, ip administered 30 mins before bicuculline challenge measured after 30 mins. The class given is functional. The conditions noted are these: route intraperitoneal.
In data set [13] the test system is Mus musculus. The data set can be described thus: Anticonvulsant activity against pentylenetetrazole-induced seizure in KunMing mouse assessed as lethality at 30 mg/kg, ip administered 30 mins before pentylenetetrazole challenge measured after 30 mins. The class given is functional. To be noted: route intraperitoneal.
Data set [14] relates to Mus musculus. Description: Anticonvulsant activity against 3-mercaptopropionic acid-induced seizure in KunMing mouse assessed as clonic seizure level at 30 mg/kg, ip administered 30 mins before 3-mercaptopropionic acid challenge measured after 30 mins. It counts as functional. To be noted: route intraperitoneal.
For data set [15], the system named is Mus musculus. The data set can be described thus: Anticonvulsant activity against bicuculline-induced seizure in KunMing mouse assessed as clonic seizure level at 30 mg/kg, ip administered 30 mins before bicuculline challenge measured after 30 mins. The conditions noted are these: route intraperitoneal. The class given is functional.
For data set [16], the system named is Mus musculus. The data set can be described thus: Anticonvulsant activity against 3-mercaptopropionic acid-induced seizure in KunMing mouse assessed as lethality at 30 mg/kg, ip administered 30 mins before 3-mercaptopropionic acid challenge measured after 30 mins. It counts as functional. The conditions noted are these: route intraperitoneal.

Active and inactive are the calls of the source. The rule behind the calls is not given here.

`O=c1[nH]nc2n1-c1ccc(OCc3ccccc3F)cc1SC2`: the outcome with Mus musculus [1] was inactive. Moreover, the result in the data set with Mus musculus [2] was Active.
Turning to `CCCCCCCOc1ccc2c(c1)SCc1n[nH]c(=O)n1-2`, the result with Mus musculus [1] was inactive.
What is called ED50 is the dose at which the effect has come halfway, by size or by number of responders. For orientation: TD50 means the dose at which the toxic effect under study appears in half of the subjects. Take `CCCCCCOc1ccc2c(c1)SCc1n[nH]c(=O)n1-2`: the PI in the data set on Mus musculus [3] is given as 11.3. The outcome with Mus musculus [4], in the data set with Mus musculus [5] and with Mus musculus [2] was Active. In the data set with Mus musculus [6], the ED50 came to 7.9 mg/kg. For the same compound, the TD50 at 1 min in data set [7] was 89.6 mg/kg.
With `CCCOc1ccc2c(c1)SCc1n[nH]c(=O)n1-2`, the PI in the data set with Mus musculus [3] is 7. In addition, the result with Mus musculus [4] and in the data set with Mus musculus [2] was Active. The ED50 in the data set with Mus musculus [6] was determined as 12.2 mg/kg. Besides, in data set [7], the TD50 at 1 min is 84.9 mg/kg.
With `CCCCCCCCCCCCCCOc1ccc2c(c1)SCc1n[nH]c(=O)n1-2`, the outcome with Mus musculus [2] was inactive.
For `CCOc1ccc2c(c1)SCc1n[nH]c(=O)n1-2`, in the data set with Mus musculus [4], the outcome was inactive. In addition, the outcome in the data set with Mus musculus [2] was Active.
For `CCCCCCCCOc1ccc2c(c1)SCc1n[nH]c(=O)n1-2`, the result in the data set with Mus musculus [2] was inactive.
Take `O=c1[nH]nc2n1-c1ccc(OCc3cccc(F)c3)cc1SC2`: the outcome in the data set with Mus musculus [1] was inactive. Moreover, the result in the data set on Mus musculus [2] was Active.
For `O=c1[nH]nc2n1-c1ccc(OCc3cccc(Cl)c3)cc1SC2`, in the data set on Mus musculus [5], the outcome was inactive. Besides, in the data set on Mus musculus [2], the result was Active.
For the compound `NC(=O)N1c2ccccc2C=Cc2ccccc21` [CARBAMAZEPINE], the PI in the data set with Mus musculus [3] was 6.4. Also, the Activity turned out to be 0% with Mus musculus [8]; 0% with Mus musculus [9]; 100% with Mus musculus [10]; 0% in the data set on Mus musculus [11]; 60% in the data set on Mus musculus [12]; 10% in the data set with Mus musculus [13]. For the same compound, the Activity with Mus musculus [14] and in the data set on Mus musculus [15] was 100% throughout. For the same compound, in the data set on Mus musculus [6], the ED50 came out at 11.8 mg/kg.
Take `O=c1[nH]nc2n1-c1ccc(OCc3ccc(F)cc3)cc1SC2`: the PI with Mus musculus [3] came out at 15.4. Further, the Activity in the data set with Mus musculus [8] is on record as 0%; in the data set on Mus musculus [9] it was 10%; in the data set on Mus musculus [10] it was 100%; with Mus musculus [11] it was 10%; in the data set on Mus musculus [12], 30%; in the data set with Mus musculus [13] it was 80%. The Activity was 100% in the data set with Mus musculus [14], 60% in the data set on Mus musculus [16] and 90% in the data set on Mus musculus [15]. Moreover, the outcome in the data set on Mus musculus [4] and in the data set on Mus musculus [2] was Active. The ED50 in the data set with Mus musculus [6] was determined as 9.2 mg/kg. Also, the TD50 at 1 min in data set [7] worked out at 141 mg/kg.
With `CCCCCOc1ccc2c(c1)SCc1n[nH]c(=O)n1-2`, the PI in the data set with Mus musculus [3] is recorded as 11.5. The outcome in the data set on Mus musculus [4], with Mus musculus [5] and in the data set with Mus musculus [2] was Active. The ED50 with Mus musculus [6] came to 7.1 mg/kg. In addition, in data set [7], the TD50 at 1 min was found to be 81.8 mg/kg.
For the compound `O=c1[nH]nc2n1-c1ccc(OCc3c(Cl)cccc3Cl)cc1SC2`, the outcome with Mus musculus [5] was inactive.
With `CCCCCCCCCCCCOc1ccc2c(c1)SCc1n[nH]c(=O)n1-2`, the result with Mus musculus [2] was inactive.
For the compound `O=c1[nH]nc2n1-c1ccc(OCc3ccccc3Cl)cc1SC2`, the result in the data set with Mus musculus [2] was inactive.
`N#Cc1ccccc1COc1ccc2c(c1)SCc1n[nH]c(=O)n1-2`: the result with Mus musculus [2] was inactive.
With `Cc1ccc(COc2ccc3c(c2)SCc2n[nH]c(=O)n2-3)cc1`, the outcome with Mus musculus [4] and with Mus musculus [2] was Active. Moreover, the result in the data set on Mus musculus [1] was inactive.
For the compound `CCCCOc1ccc2c(c1)SCc1n[nH]c(=O)n1-2`, in the data set on Mus musculus [3], the PI came to 14.9. The result with Mus musculus [4], with Mus musculus [5] and with Mus musculus [2] was Active. Further, the ED50 in the data set on Mus musculus [6] came to 7.9 mg/kg. Further, the TD50 at 1 min in [7] amounted to 118 mg/kg.
Consider `O=c1[nH]nc2n1-c1ccc(OCc3ccccc3)cc1SC2`, for which the PI with Mus musculus [3] came out at 7.8. Further, the ED50 in the data set on Mus musculus [6] stood at 12.2 mg/kg. In addition, the outcome with Mus musculus [2] was Active. The TD50 at 1 min in data set [7] was 94.7 mg/kg.
For the compound `CCCCCCOc1ccc2c(c1)CCC(=O)N2`, in the data set with Mus musculus [3], the PI came out at 2.4. Also, in the data set with Mus musculus [6], the median effective dose (ED50) is 24 mg/kg.
Take `CCCCCOc1ccc2c(c1)SCC(=O)N2`: in the data set with Mus musculus [3], the PI stood at 8.9. Besides, the ED50 in the data set with Mus musculus [6] came out at 34.1 mg/kg. For the same compound, the TD50 at 1 min in data set [7] was found to be 306 mg/kg.
As to `O=c1[nH]nc2n1-c1ccc(OCc3cccc(C(F)(F)F)c3)cc1SC2`, the outcome in the data set with Mus musculus [4] was inactive.
Take `O=c1[nH]nc2n1-c1ccc(OCc3ccc(Cl)cc3)cc1SC2`: the outcome in the data set on Mus musculus [5] was inactive.
